In patent US8758822B2, “Method for manufacturing uniform size polymeric nanoparticles containing poorly soluble drugs” (Korea Research Institute of Bioscience and Biotechnology, priority 2008, dated 2014):

Experiments:
[1] = taken as a form of tablet; cited from earlier work
ICR rats = assay: Acute toxicity test; format: in vivo; conditions: for Fatality rate / No. of dead rats: after 1 week
Source text: Acute toxicity was investigated upon administering the PLGA-BDD nanoparticles of the present invention prepared via Example 2.

[2] = test system: carbon tetrachloride-induced liver damage; conditions: administered 2 weeks, CCl4 continued to 3 and 4 weeks; FIGS. 6 and 7
Protocol: (§1) 1. For Group 1 (control group), 0.75 ml/kg of carbon tetrachloride was injected each time into the peritoneal cavity 2 times a week (Mondays & Fridays) for 4 weeks, and no additional compounds was administered any more.

[3] = test system: carbon tetrachloride-induced liver damage; assay: Treatment effects on carbon tetrachloride-induced liver damage; format: in vivo, Sprague Dawley rats; conditions: blood serum after 4 weeks; for Relative concentration of ALT against the control group: 25 mg/kg oral; for ALT* (average ALT concentration ± deviation): 25 mg/kg oral once a day, 6 times a week, CCl4 0.75 ml/kg i.p. 2 times a week
Protocol: 6-week old 20 male Sprague Dawley rats (Orient Bio, Korea) were weighed and distributed to 4 groups 5 to each group to be equal in average weight and degree of dispersion. Under the condition of 23±2′C of temperature and 55±5% of relative humidity in an animal facility, 0.75 ml/kg of 50% solution (v/v) (Sigma-Aldrich, USA) of liver toxic carbon tetrachloride (CCl4) mixed with corn oil was injected each time into the peritoneal cavity 2 times a week (Mondays & Fridays) for 4 weeks.
as §1
(§2) 2. For Group 2, in addition to the 0.75 ml/kg of carbon tetrachloride injection each time into the peritoneal cavity 2 times a week (Mondays & Fridays) for 4 weeks, BDD equivalent to 25 mg per 1 kg of body weight of each rat, which was suspended in 1% (w/v) of CMC (carboxylmethyl cellulose sodium salt, Sigma-Aldrich, USA) solution were orally administered each time once a day, 6 times a week for 4 weeks.
as §2, with “3.” for “2.”, “3,” for “2,”, “BDD-containing polymeric nanoparticles of the present invention prepared via Example 2” for “BDD”, “were” for “was”, “(Carboxylmethyl” for “(carboxylmethyl”
4. For Group 4 (no treatment group), no carbon tetrachloride and compounds were administered.
In detail, after 4 weeks, each animal was anesthetized by injecting 4% of 4 ml-chloral hydrate (BDH Laboratory Supplies, U.K.) Into the peritoneal cavity, and blood was taken out from the heart and left at a room temperature for an hour. After then, blood serum was obtained by spinning down at 16000 rpm for 20 minutes, and ALT and AST concentrations were measured by an automatic blood biochemistry analyzer (HITACHI 7080, HITACHI, Japan) using an ALT and AST test reagents (TA-Test Wako; WAKO Pure Chemical, Japan).

SMILES: COC(=O)c1cc(OC)c2c(c1-c1c(C(=O)OC)cc(OC)c3c1OCO3)OCO2 [BDD, biphenyl-dimethyl-dicarboxylate]
- bioavailability [1]: 20-30%
- Fatality rate (ICR rats; 0.005 g per kg oral): 0%
- No. of dead rats (ICR rats; 0.005 g per kg oral): 0
- Fatality rate (ICR rats; 0.1 g per kg oral): 0%
- No. of dead rats (ICR rats; 0.1 g per kg oral): 0
- Fatality rate (ICR rats; 0.25 g per kg oral): 0%
- No. of dead rats (ICR rats; 0.25 g per kg oral): 0
- Fatality rate (ICR rats; 0.5 g per kg oral): 0%
- No. of dead rats (ICR rats; 0.5 g per kg oral): 0
- Fatality rate (ICR rats; 1 g per kg oral): 0%
- No. of dead rats (ICR rats; 1 g per kg oral): 0
- LD50 (ICR rats; oral): >2000 mg/kg
- inhibiting effect on increase of carbon tetrachloride-induced ALT and AST concentration over time [2]: rebounded after 4 weeks
- Relative concentration of ALT against the control group ([3]; Table 2): 42%
- ALT* (average ALT concentration ± deviation) ([3]; Table 2): 229.6 ± 99.7 SF IU/l
- Relative concentration of ALT against the control group ([3]; Table 3): 52.9%
- ALT* (average ALT concentration ± deviation) ([3]; Table 3): 479.7 ± 144.8 SF IU/l
